# Assay results reported in patent US20140057895A1, “INDAZOLE- AND PYRROLOPYRIDINE-DERIVATIVE AND PHARMACEUTICAL USE THEREOF” (priority 2011, published 2014).
# Where a name gives a salt, the structure may show the parent alone.
# Target: T1, 5-HT4 receptor (Cavia porcellus, UniProt O70528)
# T1 construct: striatum was isolated which was cryopreserved at −80° C. until use; from tissue; host or cells: guinea pig (Slc-Hartley) striatum membranes
# Test: Test Example 3: Guinea pig 5-HT4 receptor binding assay, [3H]-GR113808, striatum membranes (Table 98)
# Settings: Guinea pig 5-HT4 receptor binding assay, [3H]-GR113808, striatum membranes; mean value of each group; read-out: IC50
# Procedure: The guinea pig 5-HT4 receptor binding assay and preparations of receptor membrane preparations herein were carried out according to a method of Grossman et al. [see, British J. Pharmacol., (1993) 109, 618].
# Slc-Hartley guinea pigs (body weight 300 g to 400 g) were decapitated to remove brain rapidly, and striatum was isolated which was cryopreserved at −80° C. until use. To the obtained tissues were added fifteen fold of Hepes buffer (50 mM, pH 7.4, 4° C.), and the mixture was homogenized by Teflon (trademark) homogenizer and centrifuged at 48,000×g (4° C.) for 15 minutes. To the resulting precipitate was added Hepes buffer (1 ml) to 30 mg by wet weight of tissues, and the mixture was suspended to give receptor membrane preparations.
# To an assay tube were added 0.1 nM [^3H]-GR113808 {chemical name: [1-[2-(methylsulfonylamino) ethyl]-4-piperidinyl]methyl 1-methylindole-3-carboxylate}, receptor membrane preparations, and Hepes buffer (50 mM, pH 7.4, 4° C., 1 ml) containing test compounds or 30 μM serotonin; and the mixture was incubated at 37° C. for 30 minutes. On quenching the reaction, the mixture was rapidly filtered on whatman GF/B filter, which was presoaked in 0.1% polyethyleneimine for 1 hour, by using Brandel cell Harvester, and washed with ice-cooled 50 mM Tris-HCl (pH 7.7, 4 ml) three times. To the filter after filtration was added a liquid scintillator (Ecoscint), and then a radioactivity was determined by a liquid scintillation counter.
# 50% Inhibition concentrations (IC50) were determined from inhibition rates of test compounds to specific bindings which were obtained by subtracting nonspecific bindings from total binding amounts of [^3H]-GR113808. […]
# T1 sequence (O70528 whole entry): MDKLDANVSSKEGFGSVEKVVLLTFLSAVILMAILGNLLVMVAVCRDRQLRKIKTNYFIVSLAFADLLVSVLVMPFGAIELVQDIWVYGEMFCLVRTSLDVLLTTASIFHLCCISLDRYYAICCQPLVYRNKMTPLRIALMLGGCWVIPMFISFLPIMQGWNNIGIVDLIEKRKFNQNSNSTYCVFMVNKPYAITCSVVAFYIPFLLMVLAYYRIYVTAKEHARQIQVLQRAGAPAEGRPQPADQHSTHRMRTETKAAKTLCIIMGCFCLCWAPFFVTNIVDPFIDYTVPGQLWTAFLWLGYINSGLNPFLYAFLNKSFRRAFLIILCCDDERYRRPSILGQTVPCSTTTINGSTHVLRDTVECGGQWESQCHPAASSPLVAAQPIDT
row,Compound,IC50 [nM]
1,"5-methyl-3-(propan-2-yl)-1-{5-[1-(tetrahydro-2H-pyran-4-yl)piperidin-5-yl]-1,2,4-oxadiazol-3-yl}-1H-indazole [Example 428]",248
2,"CC(C)c1nn(-c2noc(C3CCN(CCCOc4ccccc4)CC3)n2)c2c(F)cccc12 [Example 395, 7-fluoro-1-{5-[1-(3-phenoxypropyl)piperidin-4-yl]-1,2,4-oxadiazol-3-yl}-3-(propan-2-yl)-1H-indazole]",26.9
3,"CC(C)c1nn(-c2noc(C3CCN(CCC(=O)c4ccccc4)CC3)n2)c2c(F)cccc12 [Example 396, 3-(4-{3-[7-fluoro-3-(propan-2-yl)-1H-indazol-1-yl]-1,2,4-oxadiazol-5-yl}piperidin-1-yl)-1-phenylpropan-1-one]",< 20
4,"COC(=O)CCCN1CCC(c2nc(-n3nc(C(C)C)c4cccc(F)c43)no2)CC1 [Example 397, methyl 4-(4-{3-[7-fluoro-3-(propan-2-yl)-1H-indazol-1-yl]-1,2,4-oxadiazol-5-yl}piperidin-1-yl)butanoate]",< 20
5,"CC(C)c1nn(-c2noc(C3CCN(CCC(=O)Nc4ccccc4)CC3)n2)c2c(F)cccc12 [Example 398, 3-(4-{3-[7-fluoro-3-(propan-2-yl)-1H-indazol-1-yl]-1,2,4-oxadiazol-5-yl}piperidin-1-yl)-N-phenylpropanamide]",< 20
6,"CC(=O)N1CCC(N2CCC(c3nc(-n4nc(C(C)(C)O)c5cccc(F)c54)no3)CC2)CC1 [Example 403, 1-(4-{3-[7-fluoro-3-(2-hydroxypropan-2-yl)-1H-indazol-1-yl]-1,2,4-oxadiazol-5-yl}-1,4′-bipiperidin-1′-yl)ethanone]",36.1
7,"COc1ccc2c(C(C)C)nn(-c3noc(C4CCN(C5CCN(C(C)=O)CC5)CC4)n3)c2c1F [Example 404, 1-(4-{3-[7-fluoro-6-methoxy-3-(propan-2-yl)-1H-indazol-1-yl]-1,2,4-oxadiazol-5-yl}-1,4′-bipiperidin-1′-yl)ethanone]",100
8,"CC(=O)N1CCC(N2CCC(c3nc(-n4nc(C(F)(F)F)c5cccc(F)c54)no3)CC2)CC1 [Example 406, 1-(4-{3-[7-fluoro-3-(trifluoromethyl)-1H-indazol-1-yl]-1,2,4-oxadiazol-5-yl}-1,4′-bipiperidin-1′-yl)ethanone]",68.7
9,"CC(=O)N1CCC(N2CCC(c3nc(-n4nc(C(C)C)c5c(Cl)cccc54)no3)CC2)CC1 [Example 407, 1-(4-{3-[4-chloro-3-(propan-2-yl)-1H-indazol-1-yl]-1,2,4-oxadiazol-5-yl}-1,4′-bipiperidin-1′-yl)ethanone]",101
10,"CC(=O)N1CCC(N2CCC(c3nc(-n4nc(C(C)C)c5c(C)cccc54)no3)CC2)CC1 [Example 408, 1-(4-{3-[4-methyl-3-(propan-2-yl)-1H-indazol-1-yl]-1,2,4-oxadiazol-5-yl}-1,4′-bipiperidin-1′-yl)ethanone]",29.5
11,"CC(=O)N1CCC(N2CCC(c3nc(-n4nc(C(C)C)c5cc(Cl)ccc54)no3)CC2)CC1 [Example 409, 1-(4-{3-[5-chloro-3-(propan-2-yl)-1H-indazol-1-yl]-1,2,4-oxadiazol-5-yl}-1,4′-bipiperidin-1′-yl)ethanone]",383
12,"CC(=O)N1CCC(N2CCC(c3nc(-n4nc(C(C)C)c5cc(C)ccc54)no3)CC2)CC1 [Example 410, 1-(4-{3-[5-methyl-3-(propan-2-yl)-1H-indazol-1-yl]-1,2,4-oxadiazol-5-yl}-1,4′-bipiperidin-1′-yl)ethanone]",323
13,"CC(=O)N1CCC(N2CCC(c3nc(-n4nc(C(C)C)c5ccc(Cl)cc54)no3)CC2)CC1 [Example 412, 1-(4-{3-[6-chloro-3-(propan-2-yl)-1H-indazol-1-yl]-1,2,4-oxadiazol-5-yl}-1,4′-bipiperidin-1′-yl)ethanone]",140
14,"CC(=O)N1CCC(N2CCC(c3nc(-n4nc(C(C)C)c5cccc(C)c54)no3)CC2)CC1 [Example 413, 1-(4-{3-[7-methyl-3-(propan-2-yl)-1H-indazol-1-yl]-1,2,4-oxadiazol-5-yl}-1,4′-bipiperidin-1′-yl)ethanone]",< 20
15,"COc1cccc2c(C(C)C)nn(-c3noc(C4CCN(C5CCN(C(C)=O)CC5)CC4)n3)c12 [Example 414, 1-(4-{3-[7-methoxy-3-(propan-2-yl)-1H-indazol-1-yl]-1,2,4-oxadiazol-5-yl}-1,4′-bipiperidin-1′-yl)ethanone]",86.9
16,"CC(=O)N1CCC(N2CCC(c3nc(-n4nc(C(C)C)c5cccc(F)c54)no3)C2)CC1 (stereo not shown) [Example 415, 1-[4-(3-{3-[7-fluoro-3-(propan-2-yl)-1H-indazol-1-yl]-1,2,4-oxadiazol-5-yl}pyrrolidin-1-yl)piperidin-1-yl]ethanone]",< 20

row,Compound,IC50 [nM]
1,"CC(=O)N1CCC(N2CCC(Cc3nc(-n4nc(C(C)C)c5cccc(F)c54)no3)CC2)CC1 [Example 417, 1-[4-({3-[7-fluoro-3-(propan-2-yl)-1H-indazol-1-yl]-1,2,4-oxadiazol-5-yl}methyl)-1,4′-bipiperidin-1′-yl]ethanone]",36
2,"CC(C)c1nn(-c2noc(C3CCN(C4CCC4)CC3)n2)c2cccc(Cl)c12 [Example 421, 4-chloro-1-[5-(1-cyclobutylpiperidin-4-yl)-1,2,4-oxadiazol-3-yl]-3-(propan-2-yl)-1H-indazole]",129
3,"CC(C)c1nn(-c2noc(C3CCN(C4CCOCC4)CC3)n2)c2cccc(Cl)c12 [Example 422, 4-chloro-3-(propan-2-yl)-1-{5-[1-(tetrahydro-2H-pyran-4-yl)piperidin-4-yl]-1,2,4-oxadiazol-3-yl}-1H-indazole]",55
4,"Cc1ccc2c(c1)c(C(C)C)nn2-c1noc(C2CCN(C3CCC3)CC2)n1 [Example 427, 1-[5-(1-cyclobutylpiperidin-4-yl)-1,2,4-oxadiazol-3-yl]-5-methyl-3-(propan-2-yl}-1H-indazole]",339
5,"CC(C)c1nn(-c2noc(C3CCN(C4CCC4)CC3)n2)c2cc(Cl)ccc12 [Example 431, 6-chloro-1-[5-(1-cyclobutylpiperidin-4-yl)-1,2,4-oxadiazol-3-yl]-3-(propan-2-yl)-1H-indazole]",130
6,"Cc1ccc2c(C(C)C)nn(-c3noc(C4CCN(C5CCC5)CC4)n3)c2c1 [Example 433, 1-[5-(1-cyclobutylpiperidin-4-yl)-1,2,4-oxadiazol-3-yl]-6-methyl-3-(propan-2-yl)-1H-indazole]",65
7,"CCc1nn(-c2noc(C3CCN(C4CCC4)CC3)n2)c2cc(C)ccc12 [Example 434, 1-[5-(1-cyclobutylpiperidin-4-yl)-1,2,4-oxadiazol-3-yl]-3-ethyl-6-methyl-1H-indazole trifluoroacetate]",20.8
8,"Cc1ccc2c(C(C)C)nn(-c3noc(C4CCN(CC5CCOCC5)CC4)n3)c2c1 [Example 436, 6-methyl-3-(propan-2-yl)-1-{5-[1-(tetrahydro-2H-pyran-4-ylmethyl)piperidin-4-yl]-1,2,4-oxadiazol-3-yl}-1H-indazole trifluoroacetate]",179
9,"CCc1nn(-c2noc(C3CCN(C4CCOCC4)CC3)n2)c2cc(C)ccc12 [Example 437, 3-ethyl-6-methyl-1-{5-[1-(tetrahydro-2H-pyran-4-yl)piperidin-4-yl)-1,2,4-oxadiazol-3-yl}-1H-indazole trifluoroacetate]",113
10,"COc1cccc2c(C(C)C)nn(-c3noc(C4CCN(C5CCC5)CC4)n3)c12 [Example 440, 1-[5-(1-cyclobutylpiperidin-4-yl)-1,2,4-oxadiazol-3-yl]-7-methoxy-3-(propan-2-yl)-1H-indazole]",104
11,"COc1cccc2c(C(C)C)nn(-c3noc(C4CCN(C5CCOCC5)CC4)n3)c12 [Example 441, 7-methoxy-3-(propan-2-yl)-1-{5-[1-(tetrahydro-2H-pyran-4-yl)piperidin-4-yl]-1,2,4-oxadiazol-3-yl}-1H-indazole]",78.2
12,"CC(C)c1nn(-c2noc(C3CCN(C4CCC(F)(F)CC4)CC3)n2)c2c(F)cccc12 [Example 442, 1-{5-[1-(4,4-difluorocyclohexyl)piperidin-4-yl]-1,2,4-oxadiazol-3-yl}-7-fluoro-3-(propan-2-yl)-1H-indazole]",< 20
13,"CC(C)c1nn(-c2noc(C3CCN(C4CC[S+]([O-])CC4)CC3)n2)c2c(F)cccc12 (stereo not shown) [Example 443, 7-fluoro-1-{5-[1-(1-oxidotetrahydro-2H-thiopyran-4-yl)piperidin-4-yl]-1,2,4-oxadiazol-3-yl}-3-(propan-2-yl)-1H-indazole]",18.1
14,"CCc1nn(-c2noc(C3CCN(C4CCC4)CC3)n2)c2c(F)c(F)ccc12 [Example 446, 1-[5-(1-cyclobutylpiperidin-4-yl)-1,.2,4-oxadiazol-3-yl]-3-ethyl-6,7-difluoro-1H-indazole-trifluoroacetate]",< 20
15,"CC(C)c1nn(-c2noc(C3CCN(C4CCCC4)CC3)n2)c2c(F)c(F)ccc12 [Example 452, 1-[5-(1-cyclopentylpiperidin-4-yl)-1,2,4-oxadiazol-3-yl]-6,7-difluoro-3-(propan-2-yl)-1H-indazole trifluoroacetate]",< 20
